Test [1] can be described thus: Inhibition of Aminoglycoside N-acetyltransferases (unknown origin).
Test [2] in a line: Inhibition of Histone acetyltransferase in human Huh-7.5.1 cells assessed as hepatitis C virus-induced EGF mRNA level measured after 72 hrs. Particulars: Huh-7.5.1, 72 h.

Usually IC50 stands for the concentration that gives 50% inhibition.

Turning to `CC(CCN[C@H](CN[C@H](CO)CN1CCC[C@H]1CN[C@H](CN)c1ccccc1)c1ccccc1)c1ccccc1` (some centres not stated), half-maximal inhibition in test [1] (IC50) was put at 2100 nM. `O=C(CCCN1CCC(O)(c2ccc(Cl)cc2)CC1)c1ccc(F)cc1` [HALOPERIDOL]: the IC50 in test [2] came to 390 nM.

Values taken from ChEMBL document CHEMBL5356936, “Restoring susceptibility to aminoglycosides: identifying small molecule inhibitors of enzymatic inactivation” (RSC Med Chem, 2023).
